Read-outs that look alike come from different tables or passages of the source.
Columns and labels:
[1] = rcm bond
[2] = molecular target: T1, ShhN protein (Homo sapiens, UniProt Q15465); assay: Surface Plasmon Resonance (SPR) protein binding assay on immobilized ShhN; settings: SPR, Biacore T100, ShhN immobilized on CM4 chip, 25° C., compound 0.78 μM-25 μM; read-out: KD
T1 construct: auto-cleavage of full length Shh into an active 20 kD N-terminal fragment (ShhN); purchased R&D Systems
Procedure: Biacore™ T100 (GE Healthcare, Uppsala, Sweden) was used to perform the experiments described herein. Sensor surface preparation and interaction analyses experiments were performed at 25° C.
Control surfaces were prepared similarly without protein derivatization and were utilized as a reference surfaces for compound binding experiments.
Zero concentration blank buffer cycles were included as negative control samples.
Data analysis was carried out using Biacore T100 evaluation software v1.1.1. […] Solvent correction was then applied as described previously.

T1 sequence (Q15465 24-197 limits assumed, species assumed): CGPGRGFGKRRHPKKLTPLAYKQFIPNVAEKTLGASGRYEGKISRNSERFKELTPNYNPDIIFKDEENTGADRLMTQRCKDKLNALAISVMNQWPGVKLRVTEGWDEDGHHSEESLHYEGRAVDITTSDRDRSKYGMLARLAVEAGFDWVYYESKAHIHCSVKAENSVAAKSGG

Structure (SMILES): CC(C)(C)OC(=O)N[C@@H]1C/C=C/CCC(=O)N[C@H](c2ccccc2)COC1=O
- ring closure, yield of all isomers ([1]; from C=CCCC(=O)N[C@@H](COC(=O)[C@@H](CC=C)NC(=O)OC(C)(C)C)c1ccccc1, Grubbs II, DCM, 20.0 mM, 25.0 °C, 3.0 h): 64%

Structure (SMILES): CC(C)(C)OC(=O)N[C@@H]1C/C=C/CCC(=O)OC[C@@H]2CCCN2C1=O
- ring closure, yield of all isomers ([1]; from C=CCCC(=O)OC[C@@H]1CCCN1C(=O)[C@@H](CC=C)NC(=O)OC(C)(C)C, toluene): 19%

Structure (SMILES): CC(C)(C)[Si](C)(C)O[C@@H]1C/C=C/CCC(=O)N[C@H](c2ccccc2)COC1=O
- ring closure, yield of all isomers ([1]; from C=CCCC(=O)N[C@@H](COC(=O)[C@@H](CC=C)O[Si](C)(C)C(C)(C)C)c1ccccc1, toluene): 65%

Structure (SMILES): CC1=CC[C@@H](C)C(=O)OC[C@@H](c2ccccc2)NC(=O)CC1
- ring closure, yield of all isomers ([1]; from C=CC[C@@H](C)C(=O)OC[C@H](NC(=O)CCC(=C)C)c1ccccc1, toluene, 3 steps): 26%

Structure (SMILES): CN1C/C=C/CCC(=O)N[C@H](c2ccccc2)COC1=O
- ring closure, yield of all isomers ([1]; from C=CCCC(=O)N[C@@H](COC(=O)N(C)CC=C)c1ccccc1, DCM): 45%

Structure (SMILES): C[C@@H]1C/C=C/CCC(=O)N[C@@H](C)COC1=O
- ring closure, yield of all isomers ([1]; from C=CCCC(=O)N[C@@H](C)COC(=O)[C@H](C)CC=C, toluene, 3 steps): 35%

Structure (SMILES): C[C@@H]1C/C=C/CCC(=O)N[C@@H]2c3ccccc3C[C@H]2OC1=O
- ring closure, yield of all isomers ([1]; from C=CCCC(=O)N[C@@H]1c2ccccc2C[C@H]1OC(=O)[C@H](C)CC=C, DCM): 61.8%

Structure (SMILES): C[C@@H]1C/C=C/CCC(=O)N[C@H](c2ccccc2)CN(C)C1=O
- ring closure, yield of all isomers ([1]; from C=CCCC(=O)N[C@@H](CN(C)C(=O)[C@H](C)CC=C)c1ccccc1, toluene, 25.0 °C, 16.0 h): 68%

Structure (SMILES): C[C@@H]1C/C=C/CCC(=O)N[C@H]2CCC[C@@H]2OC1=O
- ring closure, yield of all isomers ([1]; from C=CCCC(=O)N[C@H]1CCC[C@@H]1OC(=O)[C@H](C)CC=C, toluene): 25.5%

Structure (SMILES): C[C@@H]1C/C=C/CCC(=O)N[C@H]2CCC[C@H]2OC1=O
- ring closure, yield of all isomers ([1]; from C=CCCC(=O)N[C@H]1CCC[C@H]1OC(=O)[C@H](C)CC=C, toluene): 32.4%

Structure (SMILES): C[C@@H]1C/C=C/CCC(=O)OC[C@H]2CCCN2C1=O
- ring closure, yield of all isomers ([1]; from C=CCCC(=O)OC[C@H]1CCCN1C(=O)[C@H](C)CC=C, toluene, 3 steps): 20%

Structure (SMILES): C[C@@H]1C/C=C/CCCC(=O)N[C@H](c2ccccc2)COC1=O
- ring closure, yield of all isomers ([1]; from C=CCCCC(=O)N[C@@H](COC(=O)[C@H](C)CC=C)c1ccccc1, toluene): 67%

Structure (SMILES): C[C@@H]1C/C=C/C[C@@H](NC(=O)OCC2c3ccccc3-c3ccccc32)C(=O)N[C@H](c2ccccc2)COC1=O
- ring closure, yield of all isomers ([1]; from C=CC[C@@H](C)C(=O)OC[C@H](NC(=O)[C@@H](CC=C)NC(=O)OCC1c2ccccc2-c2ccccc21)c1ccccc1, DCM): 75%

Structure (SMILES): C[C@@H]1C/C=C/C[C@H](C)C(=O)N[C@H](c2ccccn2)COC1=O
- ring closure, yield of all isomers ([1]; from C=CC[C@@H](C)C(=O)OC[C@H](NC(=O)[C@@H](C)CC=C)c1ccccn1, toluene): 89%

Structure (SMILES): C[C@@H]1C/C=C/C[C@H](C)C(=O)N[C@H](c2cccs2)COC1=O
- ring closure, yield of all isomers ([1]; from C=CC[C@@H](C)C(=O)OC[C@H](NC(=O)[C@@H](C)CC=C)c1cccs1, toluene): 74.7%

Structure (SMILES): C[C@@H]1CC=CCCC(=O)N[C@@H](c2ccccc2)COC1=O
- ring closure, yield of all isomers ([1]; from C=CCCC(=O)N[C@H](COC(=O)[C@H](C)CC=C)c1ccccc1, toluene, 25.0 °C, 16.0 h): 72%

Structure (SMILES): C[C@@H]1CC=CC[C@@H](O[Si](C)(C)C(C)(C)C)C(=O)N[C@H](c2ccccc2)COC1=O
- ring closure, yield of all isomers ([1]; from C=CC[C@@H](C)C(=O)OC[C@H](NC(=O)[C@@H](CC=C)O[Si](C)(C)C(C)(C)C)c1ccccc1, toluene): 58%

Structure (SMILES): C[C@@H]1COC(=O)C(C)(C)C/C=C/CCC(=O)N1
- ring closure, yield of all isomers ([1]; from C=CCCC(=O)N[C@H](C)COC(=O)C(C)(C)CC=C, toluene, 3 steps): 8%

Structure (SMILES): C[C@@H]1COC(=O)[C@H](C)C/C=C/CCC(=O)N1
- ring closure, yield of all isomers ([1]; from C=CCCC(=O)N[C@H](C)COC(=O)[C@H](C)CC=C, toluene, 3 steps): 38%

Structure (SMILES): C[C@@H]1[C@@H](c2ccccc2)OC(=O)CC/C=C/C[C@@H](NC(=O)OC(C)(C)C)C(=O)N1C
- ring closure, yield of all isomers ([1]; from C=CCCC(=O)O[C@H](c1ccccc1)[C@@H](C)N(C)C(=O)[C@@H](CC=C)NC(=O)OC(C)(C)C, toluene): 60%

Structure (SMILES): C[C@H]1C/C=C/CCC(=O)N[C@@H](c2ccccc2)COC1=O
- ring closure, yield of all isomers ([1]; from C=CCCC(=O)N[C@H](COC(=O)[C@@H](C)CC=C)c1ccccc1, toluene, 25.0 °C, 16.0 h): 74%

Structure (SMILES): C[C@H]1C/C=C/CCC(=O)OC[C@@H]2CCCN2C1=O
- ring closure, yield of all isomers ([1]; from C=CCCC(=O)OC[C@@H]1CCCN1C(=O)[C@@H](C)CC=C, toluene, 3 steps): 25%

Structure (SMILES): C[C@H]1[C@@H](c2ccccc2)OC(=O)CC/C=C/C[C@@H](NC(=O)OCC2c3ccccc3-c3ccccc32)C(=O)N1C
- ring closure, yield of all isomers ([1]; from C=CCCC(=O)O[C@H](c1ccccc1)[C@H](C)N(C)C(=O)[C@@H](CC=C)NC(=O)OCC1c2ccccc2-c2ccccc21, toluene): 16%

Structure (SMILES): O=C1CCC=CCN(Cc2ccc(Cl)cc2)C(=O)OC[C@@H](c2ccccc2)N1
- ring closure, yield of all isomers ([1]; from C=CCCC(=O)N[C@@H](COC(=O)N(CC=C)Cc1ccc(Cl)cc1)c1ccccc1, toluene): 25%

Structure (SMILES): CC1C/C=C/CCC(=O)N[C@H](c2ccccc2)COC1 (stereo partly drawn) [(3R,E)-11-methyl-3-phenyl-1-oxa-4-azacyclododec-8-en-5-one]
- ring closure, yield of all isomers ([1]; from C=CCCC(=O)N[C@@H](COCC(C)CC=C)c1ccccc1, toluene, 2 steps): 0.5%

Structure (SMILES): C[C@@H]1C/C=C/CCC(=O)O[C@H](c2ccccc2)CNC1=O [Compound BP, (2R,6R,E)-6-methyl-2-phenyl-1-oxa-4-azacyclododec-8-ene-5,12-dione]
- Kd [2]: > 100000 nM
- ring closure, yield of all isomers ([1]; from C=CCCC(=O)O[C@@H](CNC(=O)[C@H](C)CC=C)c1ccccc1, toluene): 79%

Structure (SMILES): C[C@@H]1C/C=C/CC(C)(C)C(=O)N[C@H](c2ccccc2)COC1=O [Example AY, (3R,11R,E)-6,6,11-trimethyl-3-phenyl-1-oxa-4-azacyclododec-8-ene-5,12-dione]
- Kd [2]: 1000 to 100000 nM
- ring closure, yield of all isomers ([1]; from C=CC[C@@H](C)C(=O)OC[C@H](NC(=O)C(C)(C)CC=C)c1ccccc1, toluene): 81%

Structure (SMILES): C[C@@H]1C/C=C/CCC(=O)O[C@H](c2ccccc2)[C@H](C)N(C)C1=O [Example BC, (2R,3S,6R,E)-3,4,6-trimethyl-2-phenyl-1-oxa-4-azacyclododec-8-ene-5,12-dione]
- Kd [2]: 1000 to 100000 nM
- ring closure, yield of all isomers ([1]; from C=CCCC(=O)O[C@H](c1ccccc1)[C@H](C)N(C)C(=O)[C@H](C)CC=C, toluene): 10%

Structure (SMILES): C[C@@H]1C/C=C/CCC(=O)OC[C@@H]2CCCN2C1=O [Example BD, (9R,14aS,E)-9-methyl-4,5,8,9,12,13,14,14a-octahydro-1H-pyrrolo[2,1-c][1,4]oxaazacyclododecine-3,10-dione]
- Kd [2]: 1000 to 100000 nM
- ring closure, yield of all isomers ([1]; from C=CCCC(=O)OC[C@@H]1CCCN1C(=O)[C@H](C)CC=C, toluene): 42%

Structure (SMILES): O=C1CC/C=C/C[C@@H](Cc2ccc(Cl)cc2)C(=O)NC[C@@H](c2ccccc2)O1 [Example BQ, (2R,6S,E)-6-(4-chlorobenzyl)-2-phenyl-1-oxa-4-azacyclododec-8-ene-5,12-dione]
- Kd [2]: < 100 nM
- ring closure, yield of all isomers ([1]; from C=CCCC(=O)O[C@@H](CNC(=O)[C@@H](CC=C)Cc1ccc(Cl)cc1)c1ccccc1, toluene): 51%

Structure (SMILES): C[C@H]1C/C=C/CCC(=O)N[C@H](c2ccccc2)COC1=O [Example BS, (3R,11S,E)-11-methyl-3-phenyl-1-oxa-4-azacyclododec-8-ene-5,12-dione]
- Kd [2]: > 100000 nM
- ring closure, yield of all isomers ([1]; from C=CCCC(=O)N[C@@H](COC(=O)[C@@H](C)CC=C)c1ccccc1, toluene): 44%

Structure (SMILES): CCCC[C@@H]1COC(=O)[C@H](CC(=O)NCc2ccc(Cl)cc2)C/C=C/CCC(=O)N1 [FR, 2-((3R,11S,E)-3-butyl-5,12-dioxo-1-oxa-4-azacyclododec-8-en-11-yl)-N-(4-chlorobenzyl)acetamide]
- Kd [2]: 1000 to 100000 nM

Structure (SMILES): O=C(C[C@@H]1C/C=C/CCC(=O)N[C@H](Cc2ccccc2)COC1=O)NCc1ccc(Cl)cc1 [FS, 2-((3R,11S,E)-3-benzyl-5,12-dioxo-1-oxa-4-azacyclododec-8-en-11-yl)-N-(4-chlorobenzyl)acetamide]
- Kd [2]: 1000 to 100000 nM

Structure (SMILES): O=C(C[C@@H]1C/C=C/CCC(=O)N2CCC[C@H]2COC1=O)NCc1ccc(Cl)cc1 [FT, N-(4-chlorobenzyl)-2-((4S,14aS,E)-3,10-dioxo-3,4,5,8,9,10,12,13,14,14a-decahydro-1H-pyrrolo[2,1-c][1,4]oxaazacyclododecin-4-yl)acetamide]
- Kd [2]: 1000 to 100000 nM

Structure (SMILES): O=C(C[C@@H]1C/C=C/CCC(=O)N[C@H](C2CCCCC2)COC1=O)NCc1ccc(Cl)cc1 [FU, N-(4-chlorobenzyl)-2-((3R,11S,E)-3-cyclohexyl-5,12-dioxo-1-oxa-4-azacyclododec-8-en-11-yl)acetamide]
- Kd [2]: > 100000 nM

Structure (SMILES): CC(C)(C)OC(=O)C[C@@H]1C/C=C/CCC(=O)N[C@H](c2ccc(Cl)cc2)COC1=O [FV]
- Kd [2]: < 100 nM

Structure (SMILES): CC(C)(C)OC(=O)C[C@@H]1C/C=C/CCC(=O)N[C@@H]2c3ccccc3C[C@@H]2OC1=O [FW, tert-butyl 2-((3S,10aR,15aS,E)-2,9-dioxo-2,3,4,7,8,9,10,10a,15,15a-decahydroindeno[2,1-b][1,4]oxaazacyclododecin-3-yl)acetate]
- Kd [2]: < 100 nM

Structure (SMILES): CC(C)(C)OC(=O)C[C@@H]1C/C=C/CCC(=O)N[C@H](c2ccc(F)cc2)COC1=O [FX]
- Kd [2]: < 100 nM

Structure (SMILES): COc1ccccc1[C@@H]1COC(=O)[C@H](CC(=O)OC(C)(C)C)C/C=C/CCC(=O)N1 [FY]
- Kd [2]: < 100 nM

Structure (SMILES): O=C(C[C@@H]1C/C=C/CCC(=O)N[C@H](c2ccccc2)COC1=O)NCC1CCOCC1 [FZ, 2-((3R,11S,E)-5,12-dioxo-3-phenyl-1-oxa-4-azacyclododec-8-en-11-yl)-N-((tetrahydro-2H-pyran-4-yl)methyl)acetamide]
- Kd [2]: 1000 to 100000 nM

Structure (SMILES): O=C1CC/C=C/CCC(=O)OC[C@@H](c2ccccc2)N1 [F]
- Kd [2]: < 100 nM

— US20140094462A1, “SONIC HEDGEHOG MODULATORS” (priority 2009, published 2014)
